Results from patent publication US11555031B2, “Compounds and methods for regulating insulin secretion” (The Broad Institute, Inc., priority 2017, dated 2023).
Entries after “also recorded” stand apart in the source; their conditions may differ.

Key:
[1] = tested on: INS-1E cells; assay: Luciferase Insulin Secretion Assay (proinsulin-Gaussia luciferase reporter); format: cell-based, rat; parameters: key to Activity: Active: a compound is identified as active if the compound has a Z-score greater than 3 in the presence of 16.7 mM glucose; Partial activity indicates that the compound does promote insulin secretion (at lower Z-scores); Lost Glucose Dependence: In some cases, insulin secretion was promoted at both measured insulin concentrations; details: for Activity: glucose dependence of insulin secretion, Z-score in the presence of 16.7 mM glucose; for glucose-dependent (glucose-stimulated) insulin secretion, luciferase reporter / effect on glucose-stimulated insulin secretion at high concentrations: INS-1E cells; for glucose-dependent (glucose-stimulated) insulin secretion, luciferase reporter: 2.8 mM vs 16.7 mM glucose; for effect on glucose-stimulated insulin secretion at high concentrations: high compound concentrations
Source text: A high-throughput luminescent insulin secretion assay was developed and performed to identify compounds that amplified insulin secretion only in the presence of a permissive glucose environment (FIG. 3). The assay used in compound screening is described in International Patent Publication No. WO2013070796A3, PCT/US2012/063982, and in Burns et al., High-Throughput Luminescent Reporter of Insulin Secretion for Discovering Regulators of Pancreatic Beta-Cell Function. Cell Metab. 2015 Jan. 6; 21(1):126-37.
The assay is a luminescent insulin secretion assay created by inserting Gaussia luciferase within the C-peptide portion of the insulin prohormone. Gaussia luciferase was chosen because of its small size and bright luciferase signal. To ensure full activity of the luciferase, a version was used that was codon-optimized for expression in mammalian cells. The enzyme was flanked with additional cleavage sites for prohormone convertase 2 (PC2), such that no extra amino acids should be present on the ends of the enzyme after processing within the vesicles (FIG. 4). Rat (INS-1E; Merglen et al., 2004) beta-cell lines stably expressing the reporter construct were generated. Assays using this cell type are referred to herein as Luciferase Insulin Secretion Assay.
A search for glucose-dependent insulin secretagogues was conducting by screening 384,216 compounds at a single concentration (10 μM) in duplicate using the Luciferase Insulin Secretion Assay, to identify those that increase insulin secretion only in the presence of high glucose (11.1 mM) (FIG. 6). These assays were performed in 1536 well format. A Z′ factor of 0.35 was obtained with respect the positive control (300 μM IBMX). The cutoff value selected was 45% activation, which was 3-4 standard deviations above background (solid uppermost line; FIG. 6).
For standard secretion assays, INS-1E cells were plated in 96-well format, preincubated for 1 hr in Krebs Ringer Buffer (KRB) with 2.8 mM glucose, and then stimulated for 1 hr in fresh KRB containing varying amounts of glucose and compounds. Insulin or C-peptide concentration was determined using an ELISA (Mercodia), following the manufacturer's protocol. Luciferase activity was determined from the same samples by adding the coelenterazine substrate to the supernatant to a final concentration of 10 μM and reading on a standard plate reader (BioTek).
INS-1E cells were expanded to 80% confluence in their growth medium, washed once in PBS, and preincubated for 1 hr at 37° C. in KRB with 2.8 mM glucose. Cells were then dissociated, spun at 300×g for 2 min, resuspended in fresh KRB without glucose, and filtered through 40 μm mesh (Becton Dickinson). Next, the cells were counted and diluted in KRB to 1×10^6 cells per ml, and glucose was added as required for each experiment. Cells were then seeded in 384-well format, 3×10^4 cells in 30 μl per well, using a Multidrop Combi device (Thermo Scientific). Compounds were pinned into each well using a Vario robot (CyBio) to a final concentration of 30 μM, and the plates were then incubated for 2 hr at 37° C. For assays involving a transfer step, the plates were then centrifuged at 300×g for 2 min, and 20 μl of supernatant was transferred to a new 384-well plate. Coelenterazine substrate was then added to a final concentration of 10 μM, and luciferase activity was determined using a standard plate reader (BioTek).

[2] = Solubility (medicinal chemistry measurements); format: physicochemical; details: relative to Compound 8
[3] = tested on: alpha-TC-1-6; assay: Luminescent glucagon secretion assay in alpha-cell line; format: cell-based; details: compared with DMSO negative control
Description: FIG. 10 depicts the quantification of α-cell secretory activity in cells treated with DMSO, KCl, or Compound 8, using a luminescent assay for glucagon secretion.
To investigate the cell-type specificity of the compound, and to exclude the possibility that Compound 8 acts as a generic secretagogue, the compound was tested on secretion from a rodent alpha-cell line, “alpha-TC-1-6,” using a luciferase reporter for glucagon secretion that mirrors the insulin secretion assay (FIG. 10).

[4] = Plasma stability, human; format: in vitro ADME
Description: (§1) Measurements were performed on human, mouse (CD-1) and rat (SD) microsomes to determine the t1/2, the plasma protein binding (“PPB”) and the plasma stability (“PS”).

[5] = Plasma stability, mouse; format: in vitro ADME
Description: as §1

[6] = Plasma stability, rat; format: in vitro ADME
Description: as §1

Row | Structure (SMILES) | Activity [1] | also measured
1 | Cc1cccc(NC(=O)c2ccc(OCc3c(C)cncc3C)cc2)c1C [Compound 49, N-(2,3-Dimethyl-phenyl)-4-(3,5-dimethyl-pyridin-4-ylmethoxy)-benzamide] | Inactive | EC50 ([1]; Rattus norvegicus, INS-1E, glucose concentration of 16.7 mM): ~82 nM; solubility [2]: lower solubility than Compound 8
2 | Cc1cccc(NC(=O)c2ccc(OCc3c(C)noc3C)cc2)n1 [Compound 82] | Inactive | 
3 | Cc1noc(C)c1COc1ccc(C(=O)Nc2cccc(C#N)c2C)cc1 [Compound 83, N-(3-Cyano-2-methyl-phenyl)-4-(3,5-dimethyl-isoxazol-4-ylmethoxy)-benzamide] | Inactive | 
4 | COCc1cccc(NC(=O)c2ccc(OCc3c(C)noc3C)cc2)c1 [Compound 84, 4-(3,5-Dimethyl-isoxazol-4-ylmethoxy)-N-(3-methoxymethyl-phenyl)-benzamide] | Inactive | 
5 | CC(=O)c1ccccc1NC(=O)c1ccc(OCc2c(C)noc2C)cc1 [Compound 85] | Inactive | 
6 | Cc1noc(C)c1COc1ccc(C(=O)NC2CCCO2)cc1 (stereo not shown) [Compound 86] | Inactive | 
7 | CC(=O)NCCCc1cc(C(=O)Nc2cccc(C)c2C)ccc1OCc1c(C)noc1C [Compound 88, 3-(3-Acetylamino-propyl)-4-(3,5-dimethyl-isoxazol-4-ylmethoxy)-N-(2,3-dimethyl-phenyl)-benzamide] | Active | 
8 | Cc1cccc(NC(=O)c2ccc(OCc3c(C)noc3C)c(CCCN=[N+]=[N-])c2)c1C [Compound 89, 3-(3-Azido-propyl)-4-(3,5-dimethyl-isoxazol-4-ylmethoxy)-N-(2,3-dimethyl-phenyl)-benzamide] | Inactive | 
9 | CC(=O)NCc1ccccc1NC(=O)c1ccc(OCc2c(C)noc2C)cc1 [Compound 90, N-[2-(Acetylamino-methyl)-phenyl]-4-(3,5-dimethyl-isoxazol-4-ylmethoxy)-benzamide] | Inactive | 
10 | CC(=O)NCc1cccc(NC(=O)c2ccc(OCc3c(C)noc3C)cc2)c1 [Compound 91, N-[3-(Acetylamino-methyl)-phenyl]-4-(3,5-dimethyl-isoxazol-4-ylmethoxy)-benzamide] | Inactive | 
11 | Cc1cc(OCc2c(C)noc2C)ccc1-c1cnc(-c2cccc(C)c2C)[nH]1 [Compound 93] | Inactive | 
12 | Cc1cccc(-c2cnc(-c3ccc(OCc4c(C)noc4C)cc3)[nH]2)c1C [Compound 94] | Inactive | 
13 | Cc1cccc(-c2cc(-c3ccc(OCc4c(C)noc4C)cc3)n[nH]2)c1C [Compound 95] | Inactive | 
14 | COCc1ccccc1NC(=O)c1ccc(OCc2c(C)noc2C)cc1 [Compound 96, 4-(3,5-Dimethyl-isoxazol-4-ylmethoxy)-N-(2-methoxymethyl-phenyl)-benzamide] | Inactive | 
15 | Cc1cccc(NS(=O)(=O)c2ccc(OCc3c(C)noc3C)cc2)c1C [Compound 97, 4-(3,5-Dimethyl-isoxazol-4-ylmethoxy)-N-(2,3-dimethyl-phenyl)-benzenesulfonamide] | Inactive | 
16 | Cc1sc2c(c1C)C(c1ccc(Cl)cc1)=N[C@@H](CC(=O)OC(C)(C)C)c1nnc(C)n1-2 [JQ1, reference compound] |  | glucose-dependent (glucose-stimulated) insulin secretion, luciferase reporter [1]: None of the compounds assayed increased glucose-dependent insulin secretion; also recorded: No increase in secretion; also recorded: small effect; effect on glucose-stimulated insulin secretion at high concentrations [1]: inhibitory effects; also recorded: decrease in glucose-stimulated secretion
17 | [Cl-].[K+] [KCl, potassium chloride, reference compound] |  | alpha-cell secretory activity (luciferase reporter for glucagon secretion) [3]: causes secretion
18 | COc1ccccc1S(=O)(=O)Nc1ccc2c(c1)CN(C)C(=O)N2 [PF1, reference compound] |  | glucose-dependent (glucose-stimulated) insulin secretion, luciferase reporter [1]: neither of the known bromodomain inhibitors (PF1 or CBP30) affect secretion to the extent of Compound 8
19 | COc1ccccc1S(=O)(=O)Nc1ccc2c(c1)CN(C)C(=O)N2 [PF-1, reference compound] |  | glucose-dependent (glucose-stimulated) insulin secretion, luciferase reporter [1]: None of the compounds assayed increased glucose-dependent insulin secretion; effect on glucose-stimulated insulin secretion at high concentrations [1]: inhibitory effects
20 | COc1ccc(CCc2nc3cc(-c4c(C)noc4C)ccc3n2C[C@H](C)N2CCOCC2)cc1Cl [SGC-CBP30, reference compound] |  | glucose-dependent (glucose-stimulated) insulin secretion, luciferase reporter [1]: None of the compounds assayed increased glucose-dependent insulin secretion; effect on glucose-stimulated insulin secretion at high concentrations [1]: inhibitory effects
21 | CC1CC(OC(=O)C(O)c2ccccc2)CC(C)(C)N1C (stereo not shown) [eucatropine, reference compound] |  | PS [4]: 1.1 % remaining; PS [5]: 24.6 % remaining; PS [6]: 32.4 % remaining
